For one data set, the system named is MV522 cells. As to the kind of experiment: cells. In kind it is cell-based, human. To be noted: for IC50: Homo sapiens, MV522, 2 h, read-out: Two hour IC50.
A further data set concerns HL60 cells. The data set is described as follows: cells. The format is cell-based. To be noted: Homo sapiens, HL-60, 48 h, read-out: 48 hour IC50.
A further data set has as its system 8392 cells (B-cell). The data set is described as follows: cells. In kind it is cell-based. Conditions: 2 h, read-out: Two hour IC50.
In a further data set the test system is MV522. The data set is described as follows: cells. To be noted: Homo sapiens, MV522, 48 h, read-out: 48 hour IC50. In kind it is cell-based.
The next data set deals with HL60 cells (myeloid). As to the kind of experiment: cells. In kind it is cell-based, human. To be noted: for IC50: Homo sapiens, HL-60, 2 h, read-out: Two hour IC50.
Another data set deals with 8392 cells. The data set is described as follows: cells. In kind it is cell-based. To be noted: 48 h, read-out: 48 hour IC50.
Another data set concerns HL-60 cells. As to the kind of experiment: cells. The format is cell-based, human.
The test system of data set [1] is human lung adenocarcinoma MV522. Conditions: in vivo.
The test system is the same in data set [2]. The data set is described as follows: animal or person. Conditions: MV522, ip, read-out: life span.
Data set [3] concerns HL60/MRI cells (human myeloid leukemia tumor cells). To be noted: in vivo, iv.

Several values for one entry are separate records, joined by “and”; a condition that tells them apart may be missing. Equal values may be shown once. Read-outs that look alike come from different tables or passages of the source.

One may read the IC50 as the concentration needed to halve the response being measured.

On to `COc1ccc(CC2=C(C)C=C3C(=O)[C@](C)(O)C4(CC4)C(C)=C32)cc1` [6-(p-methoxybenzyl)acylfulvene], for which the concentration for half-maximal inhibition (IC50) came to 2040 nM in the data set on MV522 cells; 1050 nM with HL60 cells; 35700 nM in the data set with 8392 cells (B-cell); 1550 nM in the data set on MV522; 1960 nM in the data set with HL60 cells (myeloid); 7140 nM with 8392 cells.
`C[C@@]1(CO)[C@H](O)CC[C@@]2(C)[C@H]1CC[C@H]1C[C@@H]3C[C@@]12CC[C@]3(O)CO` [Aphidocolin]: in the data set with HL-60 cells (read-out: IC50), the IC50 was 2100 nM.
In turn, `O=NN(CCCl)C(=O)NCCCl` [BCNU] had an IC50 with HL-60 cells (Homo sapiens, HL-60) of 23300 nM.
On to `Cc1cc2c(c(C)c1CCO)C(=O)[C@@H](C)[C@@H]2O` [Pterosin C], for which, in the data set on HL-60 cells (read-out: IC50), the half-inhibitory concentration (IC50) was 12500 nM.
As to `CC1=C(Br)C2=C(C)C3(CC3)[C@@](C)(O)C(=O)C2=C1` [6-bromoacylfulvene, 6-Bromoacylfulvene], the “toxicity to target tumor cells” value with MV522 cells and with HL60 cells (myeloid) was “markedly toxic” in each case. The IC50 was determined as 4180 nM in the data set on MV522 cells; 412 ± 21 nM with HL60 cells; 356 ± 61 nM in the data set with MV522; 803 ± 88 nM in the data set on HL60 cells (myeloid); 1190 nM in the data set with 8392 cells. In addition, in data set [1], the “efficacy in this model” value is reported as “effective in this model”.
On to `CO[C@@]12[C@H](COC(N)=O)C3=C(C(=O)C(C)=C(N)C3=O)N1C[C@@H]1N[C@@H]12` [mitomycin C], for which the “life span versus control” value in data set [1] is listed as “no significant increase in the life span”. For the same compound, in data set [1] (ip, 2.4 mg/kg), the life span is 111 ± 2% and 149 ± 12%.
Regarding `CC1=C(Cc2ccc(O)cc2)C2=C(C)C3(CC3)[C@@](C)(O)C(=O)C2=C1` [6-(p-hydroxybenzyl)acylfulvene, 6-(p-Hydroxybenzyl)acylfulvene], the IC50 came out at 1180 nM in the data set on MV522 cells; 382 ± 39 nM in the data set on HL60 cells; 95200 nM in the data set on 8392 cells (B-cell); 615 ± 56 nM in the data set on MV522; 264 ± 38 nM in the data set on HL60 cells (myeloid); 11100 nM in the data set with 8392 cells. In addition, the “efficacy in this model” value in [1] is “effective in this model”. In addition, the response vs control in vivo at 15 mg/kg in [2] is 125 ± 16%. The response vs control in vivo at 20 mg/kg in data set [2] was determined as 126 ± 22%.
Turning to `CC1=C(I)C2=C(C)C3(CC3)[C@@](C)(O)C(=O)C2=C1` [6-iodoacylfulvene, 6-Iodoacylfulvene], the “toxicity to target tumor cells” value with MV522 cells and in the data set with HL60 cells (myeloid) was “markedly toxic” in each case. Moreover, the IC50 in the data set with MV522 cells was determined as 956 ± 152 nM; in the data set on HL60 cells it was 290 ± 12 nM; in the data set with 8392 cells (B-cell), 10300 nM; in the data set with MV522 it was 556 ± 47 nM; with HL60 cells (myeloid) it was 2600 nM; in the data set on 8392 cells, 1700 nM. In [2], the response vs control in vivo at 20 mg/kg was 120 ± 34%.
Regarding `CC1=Cc2cc(C)c(C)c(C)c2C1=O` [2,5,6,7-tetramethyl-1-indenone, 2,5,6,7-Tetramethyl-1-Indenone], in the data set with HL-60 cells (Homo sapiens, HL-60), the midpoint of inhibition, the IC50, lay at 475 nM.
As to `COc1cccc2c1C(=O)c1c(O)c3c(c(O)c1C2=O)C[C@@](O)(C(=O)CO)C[C@@H]3O[C@H]1C[C@H](N)[C@H](O)[C@H](C)O1` [Adriamycin], the “life span versus control” value in [1] is on record as “no significant increase in the life span”. The life span in data set [1] (ip, 2.6 mg/kg) was 98 ± 12% and 150 ± 25%.
`CC(=O)OCC1=C(C)C=C2C(=O)[C@](C)(O)C3(CC3)C(C)=C21` [6-acetoxymethylacylfulvene]: the IC50 in the data set on MV522 cells amounted to 1070 nM; with HL60 cells, 806 ± 30 nM; in the data set on 8392 cells (B-cell), 47500 nM; with MV522 it was 486 ± 42 nM; with HL60 cells (myeloid), 3330 nM; in the data set with 8392 cells it was 4430 nM.
Regarding `CC(=O)O[C@H]1C(=O)[C@@]2(C)[C@H]([C@H](OC(=O)c3ccccc3)[C@]3(O)C[C@H](OC(=O)[C@H](O)[C@@H](NC(=O)c4ccccc4)c4ccccc4)C(C)=C1C3(C)C)[C@]1(OC(C)=O)CO[C@@H]1C[C@@H]2O` [taxol], in [1], the “life span versus control” value is on record as “no significant increase in the life span” and the tumor growth response result is “failed to inhibit tumor growth”. In addition, in data set [1] (ip, 4 mg/kg), the life span stood at 120 ± 10%. Moreover, the drug toxicity entry in data set [1] (ip, 6 mg/kg) is reported as “drug toxicity was now killing the animals”. Besides, in [2], the response vs control in vivo at 4 mg/kg worked out at 100 ± 10%, the response vs control in vivo at 6 mg/kg is 93 ± 22% and the response vs control in vivo at 20 mg/kg was found to be 113 ± 22%.
Turning to `CC1=CC2=C(C)C3(CC3)[C@@](C)(O)C(=O)C2=C1` [Illudofulvene], the IC50 with MV522 cells came to 727 ± 180 nM; in the data set with HL60 cells it was 364 ± 74 nM; with 8392 cells (B-cell), 66.4 nM; in the data set with MV522, 349 ± 23 nM; in the data set with HL60 cells (myeloid), 998 ± 244 nM; in the data set on HL-60 cells (Homo sapiens, HL-60) it was 500 nM. The IC50 in the data set with 8392 cells is 833 ± 152 nM. Besides, in data set [3], the “adverse effects (food or water intake, body weight)” value is given as “did not display any evidence of adverse effect”. Further, the “inhibition of tumor growth” value in data set [3] is “effective at inhibiting tumor growth”.

(Values after patent US5563176A (priority 1994, dated 1996).)
